Laboratory results reported in patent US6900198B2, “Synthetic catalytic free radical scavengers useful as antioxidants for prevention and therapy of disease” (Eukarion, Inc., priority 1995, dated 2005).

Assay: SOD activity, cytochrome c as acceptor, IC50 (Example 2)
Format: biochemical
Conditions: read-out: SOD activity IC50 (half-maximally active concentration)
Experimental: Superoxide dismutase (SOD) activity was assayed by following the inhibition of the reduction of an electron acceptor molecule in the presence of the free-radical generating system xanthine/xanthine oxidase (McCord et al. (1973) Superoxide and Superoxide Dismutase in “Oxidases and Related Redox Systems, vol. I, King et al. eds., University Park press, Baltimore, pp. 51-76). The assay mixture consisted of 50 mM sodium phosphate, pH 7.8, 120 μM xanthine, 0.2 units/ml xanthine oxidase, with acceptor molecule and salen manganese compound, as indicated. Assays were conducted at 27±0.2° C. using a water-jacketed cell holder in a Beckman DU7400 spectrophotometer. In most cases, oxidized cytochrome c, at 0.13 mg/ml, was employed as acceptor and its reduction was monitored spectrophotometrically at 550 nm. In some experiments, nitroblue tetrazolium (NBT), at 80 μM, was substituted for cytochrome c as the acceptor. NBT reduction was also monitored at 550 nm. An estimated extinction coefficient for NBT reduction, 20,800 M^−1cm^−1, determined empirically by exhaustive reduction of NBT in the reaction mixture described above, was employed where indicated. This value agreed well with reported extinction coefficients for reduced tetrazolium dyes. […] Conversion of xanthine to urate was calculated using ε290's of […] for urate and 4050 M^−1cm^−1 for xanthine. […]

[Cl][Mn]1[O]c2ccccc2C=NCCN=Cc2ccccc2[O]1 [Compound C7]
IC50: 3.2 µM
